Results published in ChEMBL document CHEMBL1201862, “PubChem BioAssay data set” (2004).
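Where inhibition never reached the appropriate level, the endpoint shown equals the highest concentration tested. Otherwise, values were interpolated linearly from a five-concentration, 48-hour dose response in 96-well plates. Here, GI50 denotes the concentration required for 50% inhibition of growth.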 Active and inactive are the calls of the source. Rule as the data show it: active = GI50 up to about 1.1 µM and inactive = higher.

Key:
Experiment in all cases: growth of human tumour cells (NCI), 48 h
786-0 = system: 786-0
A498 = system: A498
A549 = system: A549
ACHN = system: ACHN
BT-549 = system: BT-549
CAKI-1 = system: CAKI-1
CCRF-CEM = system: CCRF-CEM
COLO 205 = system: COLO 205
DU-145 = system: DU-145
EKVX = system: EKVX
HCC 2998 = system: HCC 2998
HCT-116 = system: HCT-116
HCT-15 = system: HCT-15
HOP-62 = system: HOP-62
HOP-92 = system: HOP-92
HT-29 = system: HT-29
Hs-578T = system: Hs-578T
IGROV-1 = system: IGROV-1
K562 = system: K562
KM12 = system: KM12
LOX IMVI = system: LOX IMVI
M14 = system: M14
MCF7 = system: MCF7
MDA-MB-231 = system: MDA-MB-231
MDA-MB-435 = system: MDA-MB-435
MDA-N = system: MDA-N
MOLT-4 = system: MOLT-4
Malme-3M = system: Malme-3M
NCI-H226 = system: NCI-H226
NCI-H23 = system: NCI-H23
NCI-H460 = system: NCI-H460
NCI-H522 = system: NCI-H522
NCI/ADR-RES = system: NCI/ADR-RES
OVCAR-3 = system: OVCAR-3
OVCAR-4 = system: OVCAR-4
OVCAR-5 = system: OVCAR-5
OVCAR-8 = system: OVCAR-8
PC-3 = system: PC-3
RPMI-8226 = system: RPMI-8226
SF-268 = system: SF-268
SF-295 = system: SF-295
SF-539 = system: SF-539
SK-MEL-2 = system: SK-MEL-2
SK-MEL-5 = system: SK-MEL-5
SK-OV-3 = system: SK-OV-3
SN12C = system: SN12C
SNB-19 = system: SNB-19
SNB-75 = system: SNB-75
SR = system: SR
SW-620 = system: SW-620
T47D = system: T47D
TK-10 = system: TK-10
U-251 = system: U-251
UACC-257 = system: UACC-257
UACC-62 = system: UACC-62
UO-31 = system: UO-31
HL-60 = system: HL-60
RXF 393 = system: RXF 393
SK-MEL-28 = system: SK-MEL-28

Measured: GI50

O=C1Nc2ccccc2/C1=N/N=C1NCCCCN1
inactive: 786-0 > 100 µM | A498 > 100 µM | A549 > 100 µM | ACHN > 100 µM | BT-549 > 100 µM | CAKI-1 > 100 µM | CCRF-CEM > 100 µM | COLO 205 > 100 µM | DU-145 > 100 µM | EKVX > 100 µM | HCC 2998 > 100 µM | HCT-116 > 100 µM | HOP-62 > 100 µM | HOP-92 > 100 µM | HT-29 > 100 µM | Hs-578T > 100 µM | IGROV-1 > 100 µM | K562 > 100 µM | KM12 > 100 µM | LOX IMVI > 100 µM | M14 > 100 µM | MCF7 > 100 µM | MDA-MB-231 > 100 µM | MDA-MB-435 > 100 µM | MDA-N > 100 µM | MOLT-4 > 100 µM | Malme-3M > 100 µM | NCI-H226 > 100 µM | NCI-H23 > 100 µM | NCI-H460 > 100 µM | NCI-H522 > 100 µM | NCI/ADR-RES > 100 µM | OVCAR-3 > 100 µM | OVCAR-4 > 100 µM | OVCAR-5 > 100 µM | OVCAR-8 > 100 µM | PC-3 > 100 µM | RPMI-8226 > 100 µM | SF-268 > 100 µM | SF-295 > 100 µM | SF-539 > 100 µM | SK-MEL-2 > 100 µM | SK-MEL-5 > 100 µM | SK-OV-3 > 100 µM | SN12C > 100 µM | SNB-19 > 100 µM | SNB-75 > 100 µM | SR > 100 µM | SW-620 > 100 µM | T47D 57.8 µM | TK-10 > 100 µM | U-251 > 100 µM | UACC-257 > 100 µM | UACC-62 > 100 µM | UO-31 > 100 µM
> 100 µM: HCT-15

COP(=O)(OC)C(NC=O)P(=O)(OC)OC
inactive: 786-0 > 100 µM | A498 > 100 µM | A549 > 100 µM | ACHN > 100 µM | BT-549 > 100 µM | CAKI-1 > 100 µM | CCRF-CEM > 100 µM | COLO 205 > 100 µM | DU-145 > 100 µM | EKVX > 100 µM | HCC 2998 > 100 µM | HCT-116 > 100 µM | HL-60 > 100 µM | HOP-62 > 100 µM | HOP-92 > 100 µM | HT-29 > 100 µM | Hs-578T > 100 µM | IGROV-1 > 100 µM | K562 > 100 µM | LOX IMVI > 100 µM | M14 > 100 µM | MCF7 > 100 µM | MDA-MB-231 > 100 µM | MDA-MB-435 > 100 µM | MDA-N > 100 µM | MOLT-4 > 100 µM | Malme-3M > 100 µM | NCI-H226 > 100 µM | NCI-H23 > 100 µM | NCI-H460 > 100 µM | NCI/ADR-RES > 100 µM | OVCAR-3 > 100 µM | OVCAR-4 > 100 µM | OVCAR-8 > 100 µM | PC-3 > 100 µM | RPMI-8226 > 100 µM | RXF 393 > 100 µM | SF-268 > 100 µM | SF-295 > 100 µM | SF-539 > 100 µM | SK-MEL-28 > 100 µM | SK-MEL-5 > 100 µM | SK-OV-3 > 100 µM | SN12C > 100 µM | SNB-19 > 100 µM | SR > 100 µM | SW-620 > 100 µM | T47D > 100 µM | TK-10 > 100 µM | U-251 > 100 µM | UACC-62 > 100 µM | UO-31 > 100 µM
> 100 µM: HCT-15
